Test results reported in publication PMC5312290, “Momordin Ic, a new natural SENP1 inhibitor, inhibits prostate cancer cell proliferation” (Oncotarget, 2016).

Biological target: SUMO-specific protease 1 (SENP1) (Homo sapiens, UniProt Q9P0U3)
Sequence (Q9P0U3 419-644 limits assumed): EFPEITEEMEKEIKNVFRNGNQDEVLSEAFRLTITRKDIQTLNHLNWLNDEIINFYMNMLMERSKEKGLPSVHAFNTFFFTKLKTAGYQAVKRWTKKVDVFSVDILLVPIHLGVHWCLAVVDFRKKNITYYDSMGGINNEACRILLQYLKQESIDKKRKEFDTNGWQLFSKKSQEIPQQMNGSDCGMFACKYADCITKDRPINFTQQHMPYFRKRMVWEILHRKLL

- IC50: 15.4 µM
Structure (SMILES): CC1(C)CC[C@]2(C(=O)O)CC[C@]3(C)C(=CC[C@@H]4[C@@]5(C)CC[C@H](O[C@@H]6O[C@H](C(=O)O)[C@@H](O)[C@H](O[C@@H]7OC[C@@H](O)[C@H](O)[C@H]7O)[C@H]6O)C(C)(C)[C@@H]5CC[C@]43C)[C@@H]2C1 [Mc, Momordin Ιc]
